Assay: in vitro
Conditions: human, hela cells, % viability

Row | SMILES | viability at 28.5 h, 10 µM [%]
1 | O=[N+]([O-])c1ccc(-c2nc(-c3ccccc3)c(-c3ccc4oc5ccc(-c6[nH]c(-c7ccc([N+](=O)[O-])cc7)nc6-c6ccccc6)cc5c4c3)[nH]2)cc1 [CBK261434] | 93.9
2 | CNc1nc(C2CCN(C(=O)c3ccc(N4CCC(C)CC4)cc3)C2)nc2c1CCN(C)C2 (centres unmarked) [CBK285835] | 106
3 | COCC(=O)N1CCN(C(=O)c2cccs2)[C@@H](C(=O)OC)C1 [CBK289614] | 111
4 | COc1ccc(-n2nc(C)c3onc(C)c3c2=O)cc1 [CBK000853] | 101
5 | Cc1cc2c(s1)c1cnn(CC(=O)NC(C)C)c(=O)c1n2C [CBK284155] | 79.7
6 | CS(=O)(=O)c1ccc(-c2ccc3c(n2)CCN(C2CCN(C(=O)OCc4ccccc4)CC2)C3)cc1 [CBK169530] | 81.8
7 | CC(C)CN1CC2(CCN(C(=O)OCc3ccccc3)CC2)c2ccccc21 [CBK022626C] | 106
8 | O=C(CN1C(=O)c2ccccc2C1=O)Nc1ccc(S(=O)(=O)N2CCCCCC2)cc1 [CBK266693] | 91.7
9 | c1ccc(SCCN2CCOCC2)cc1 [CBK027679] | 97.8
10 | COc1cccc2sc(Nc3nc4ccc(S(C)(=O)=O)cc4s3)nc12 [CBK287472] | 104
11 | CC1(C)CC(N2CN(C3CC(C)(C)NC(C)(C)C3)CN(C3CC(C)(C)NC(C)(C)C3)C2)CC(C)(C)N1 [CBK261985] | 90.8
12 | CCNc1nc2c(c(=O)[nH]c(=O)n2C)n1CCCc1ccccc1 [CBK269243] | 94.6
13 | O=C(c1cccc(-c2ccc(F)cc2)c1)N1CC(O)C1 [CBK281499] | 100
14 | Cc1cccc(OCCOc2ccc(Br)cc2/C=C2\SC(=N)NC2=O)c1 [CBK263958] | 102
15 | O=C(Cn1cc(-c2ccc(CN3CCCCC3)cc2)nn1)NCc1ccc(C2CCC2)cc1 [CBK167547] | 86.6
16 | COc1cccc(-n2nnc3c(SCC(N)=O)ncnc32)c1 [CBK287543] | 75
17 | Clc1ccc(CSCCn2cccc2)cc1 [CBK021366] | 92
18 | O=C(/C=C\c1ccco1)Oc1ccc(/C=N\NC(=O)c2cncc(Br)c2)cc1 [CBK261385] | 83.2
19 | O=c1c2c(nc(NCCO)n1-c1ccccc1)-c1ccccc1CC21CCCCC1 [CBK262589] | 96.4
20 | O=C(Cc1ccc2c(c1)CCC2)N1CCCCC1CN1CCOCC1 (centres unmarked) [CBK282704] | 88.8
21 | O=C1NC2(CCc3ccccc31)CCN(C(=O)c1ccc(F)cc1)C2 (centres unmarked) [CBK285308] | 102
22 | O=C(CCN1CCCCC1)Nc1ccc2c(=O)n3c(nc2c1)/C(=C/c1ccccc1)CC3 [CBK017786] | 94.1

Row | SMILES | viability at 28.5 h, 10 µM [%]
23 | O=C1N=C(Nc2cccc(C(=O)O)c2)S/C1=C/c1cccc(O)c1 [CBK264984] | 92.5
24 | CN(C)C(=O)[C@@]1(O)CCC2(c3ccc(Cl)cc3)CCCN(C)C2C1 (some centres unmarked) [CBK005234] | 92.8
25 | CC(C)c1ccc(S(=O)(=O)Nc2cccc(SC(F)(F)F)c2)cc1 [CBK044581] | 99.5
26 | COc1cccc(C2(NC(=O)c3cnsc3)CCCC2)c1 [CBK283611] | 94.9
27 | O=C(Nc1ccc(S(=O)(=O)N2CCCC2)cc1)c1ccc(COc2ccc3c(c2)CCC3)o1 [CBK265847] | 89.1
28 | CC1CCc2c(sc3ncnc(OCC(=O)N4CCCCC4)c23)C1 (centres unmarked) [CBK304979] | 87.5
29 | NC(=O)NC(CC(=O)N1CCc2sccc2C1)c1cccc(Br)c1 (centres unmarked) [CBK305813] | 95
30 | N#Cc1ccc(Cn2nc(NC(=O)c3ccco3)c3ccccc32)cc1 [CBK048260] | 91.8
31 | O=C(c1ccc(F)cc1)C1CCN(Cc2cc(=O)[nH]c(=O)[nH]2)CC1 [CBK149132] | 91.8
32 | CCN1C(=O)/C(=C/c2cc(Br)ccc2OCc2cccc([N+](=O)[O-])c2)NC1=S [CBK265138] | 93.6
33 | CN1CCOc2cc(S(=O)(=O)Nc3nnn[nH]3)ccc21 [CBK062389] | 99.1
34 | Fc1ccc(N(CCCN2CCN(c3ncccn3)CC2)c2ccc(F)cc2)cc1 [CBK025127C] | 98.8
35 | NC(=O)c1ccccc1-c1cnc(N)c(-c2ccc(O)cc2)n1 [CBK115536] | 89.4
36 | COc1ccc(-c2cc(C(=O)NCc3ccc4c(c3)OCO4)cnc2-c2ccccc2)cn1 [CBK037571] | 97.9
37 | Cc1nc(-c2ccc(N3CC(C(N)=O)CCC3C)nc2)[nH]c(=O)c1C (centres unmarked) [CBK306463] | 83.9
38 | CSc1nc(NC(=O)Cc2c[nH]c3ccccc23)cc(N2CCNCC2)n1 [CBK050265T] | 84.4
39 | COC1C(O)C(CO)OC1n1cnc2c(=O)[nH]cnc21 (centres unmarked) [CBK201328] | 91.3
40 | O=C(c1ccccc1)N1C[C@H](c2ccc(F)cc2)[C@H]2CN(Cc3ccccc3F)CC[C@H]21 [CBK286289] | 90.1
41 | O=C(Nc1cccc(-c2nc3ncccc3o2)c1)c1ccc(Cl)c([N+](=O)[O-])c1 [CBK262845] | 88.8
42 | CC(C)CN(CC(N)=O)CC(=O)NC1(c2ccccc2)CCC1 [CBK066883T] | 88.9
43 | CNC(=O)c1cc(S(=O)(=O)N(C2CC2)C2CCc3ccccc32)cn1C (centres unmarked) [CBK305988] | 106
44 | CCOC(=O)c1cnn(C2CCCN(Cc3cc(C#N)cs3)C2)c1 (centres unmarked) [CBK305399] | 101
